Laboratory results taken from patent US10106577B2, “Agonists of neurotrophin receptors and their use as medicaments” (BIONURE FARMA, S.L., priority 2010, dated 2018).

Legend:
[1] = test system: retinal ganglion cells (RGC); test: Glaucoma model, count of retinal ganglion cells; format: in vivo, Sprague Dawley rats
Procedure: 12 Sprague Dawley rats (4 months of age) were anesthetized with […] and subjected to hypertonic saline solution injection into the episcleral vein of the right eye. Intraocular pressure (IOP) was measured before the operation and was monitored one time a week using a TonoLab for 7 weeks. Treatment with G79 was begun one week after glaucoma induction by topical application at the conjunctive. Two different experiments were performed.
In the first experiment, G79 was dissolved into physiological solution and was used at two different concentration (200 μg/ml and 400 μg/ml). NGF was used as positive control (200 μg/ml) and the physiological solution, used to dissolve all the molecules, was subministered as placebo. The animals were divided into 4 groups (3 animals in each group): glaucoma-G79 200 μg/ml; glaucoma-G79 […]; glaucoma-NGF; glaucoma-placebo. The left eye was used as the control without glaucoma. In both experiments, seven weeks after glaucoma induction, animals were sacrificed by overdose of anaesthetic and their eyes were taken and fixed in 4% of PFA. The eyes were included in paraffin and cut into 20 μm sections to be used for histological studies (hematoxilin-eosin staining). The cell count of the number of retinal ganglion cells (RGC) was performed randomly in ten different fields for each eye.
Rats were injected with a hypertonic solution in the eye that induced high intraocular pressure for five weeks. Animals were treated with eye drops of NGF ([…]), G79 ([…]) or placebo every day for five weeks. Animals with glaucoma and treated with placebo (saline) have a significant decrease in the number of retinal ganglion cells compared with control.
In the second experiment, G79 at the concentration of 200 μg/ml was used. The objective of this second experiment was to compare the efficacy of G79 to Timolol, the most common therapy for glaucoma that works by decreasing the intraocular pressure. Also in this experiment, a combination treatment with G79 and Timolol was performed. […]

TrkA = target: T1, TrkA (Rattus norvegicus, UniProt P35739); test: Western blot analysis of receptor phosphorilation in PC12 cells; format: cell-based; conditions: G79 100 ng/ml; 5-15-30-60 min
T1 construct: PC12 cells expressing both TrkA and p75 receptors were cultivated in normal growth medium; endogenous in cells; host or cells: PC12
T1 sequence (P35739 33-799): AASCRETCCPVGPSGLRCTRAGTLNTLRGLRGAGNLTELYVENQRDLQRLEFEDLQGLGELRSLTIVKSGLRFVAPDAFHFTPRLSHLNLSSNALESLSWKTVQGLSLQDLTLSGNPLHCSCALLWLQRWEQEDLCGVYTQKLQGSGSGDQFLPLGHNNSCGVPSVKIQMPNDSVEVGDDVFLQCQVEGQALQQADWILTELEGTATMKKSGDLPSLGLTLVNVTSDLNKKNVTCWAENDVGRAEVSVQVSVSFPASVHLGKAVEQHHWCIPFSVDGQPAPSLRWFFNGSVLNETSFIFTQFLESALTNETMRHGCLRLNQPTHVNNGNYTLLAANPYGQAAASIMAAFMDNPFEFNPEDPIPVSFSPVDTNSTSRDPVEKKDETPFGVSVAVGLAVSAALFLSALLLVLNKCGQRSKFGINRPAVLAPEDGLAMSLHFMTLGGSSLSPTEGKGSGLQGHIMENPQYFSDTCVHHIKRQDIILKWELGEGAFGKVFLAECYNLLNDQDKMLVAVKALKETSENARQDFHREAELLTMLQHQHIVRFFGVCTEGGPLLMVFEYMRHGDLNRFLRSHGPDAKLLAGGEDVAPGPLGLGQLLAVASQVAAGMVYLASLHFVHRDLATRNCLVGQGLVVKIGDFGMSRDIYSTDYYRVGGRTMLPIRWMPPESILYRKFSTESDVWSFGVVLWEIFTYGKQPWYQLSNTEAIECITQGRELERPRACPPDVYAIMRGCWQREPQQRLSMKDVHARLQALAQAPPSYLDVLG
Procedure: (§1) Neurotrophin receptors TrkA and TrkB activation (phosphorilation) was evaluated by Western-blot as follows: PC12 cell growing on 24-well plates were treated with low serum medium (0.5% FBS) to reduce the basal level of phosphorilation. After 24 h, the PC12 cells were treated with G79 (100 ng/ml), then recovered and lysated in 300 μl of ice-cold lysis buffer (Sigma Aldrich) at 5-15-30-60 min. After sonication, cell debris were removed by centrifugation (14000 rpm for 10 min) and equal amount of supernatant (30-35 μg/well) were loaded and separated by 10% polyacrilamide gel electrophoresis (PAGE) and then electrobloted onto PVDF membranes. Membranes were blocked by 5% nonfat milk and then sequentially incubated with the primary antibodies [phospho-TrkA, Tyr490 (Cell Signaling) or phospho-TrkB, Tyr515 (NovusBiological)] 1:1000 over-night and the secondary antibodies 1:2000, for 1 h at room temperature. Blots were processed for visualization by chemiluminescence system (Amersham) and exposed to Kodak film to visualize the fluorographic image.

TrkB = target: T2, TrkB (Rattus norvegicus, UniProt Q63604); test: as above; format: cell-based; conditions: G79 100 ng/ml; 5-15-30-60 min
T2 construct: endogenous in cells; host or cells: PC12
T2 sequence (Q63604 32-821): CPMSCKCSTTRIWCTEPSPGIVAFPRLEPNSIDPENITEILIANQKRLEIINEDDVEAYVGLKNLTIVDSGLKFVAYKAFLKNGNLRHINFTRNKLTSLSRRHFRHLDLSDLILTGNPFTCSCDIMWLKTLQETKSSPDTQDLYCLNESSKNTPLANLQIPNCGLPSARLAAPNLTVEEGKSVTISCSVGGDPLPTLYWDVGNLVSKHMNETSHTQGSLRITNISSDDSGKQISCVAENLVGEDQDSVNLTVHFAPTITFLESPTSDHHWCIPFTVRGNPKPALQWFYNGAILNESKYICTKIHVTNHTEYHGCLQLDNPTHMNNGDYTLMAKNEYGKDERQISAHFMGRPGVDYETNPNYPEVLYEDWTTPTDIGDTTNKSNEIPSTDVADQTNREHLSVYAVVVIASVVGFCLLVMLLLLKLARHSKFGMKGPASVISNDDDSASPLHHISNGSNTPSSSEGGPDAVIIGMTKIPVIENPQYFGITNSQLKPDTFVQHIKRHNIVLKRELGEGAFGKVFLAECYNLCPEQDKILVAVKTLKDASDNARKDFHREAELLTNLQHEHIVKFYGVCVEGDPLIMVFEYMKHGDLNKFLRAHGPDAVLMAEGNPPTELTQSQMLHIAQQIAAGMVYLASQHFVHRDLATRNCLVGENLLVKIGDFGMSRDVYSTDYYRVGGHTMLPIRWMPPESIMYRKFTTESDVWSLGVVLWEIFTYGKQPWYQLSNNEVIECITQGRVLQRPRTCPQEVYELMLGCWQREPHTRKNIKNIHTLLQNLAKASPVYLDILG
Procedure: as §1

mice affected by EAE = test: Experimental autoimmune encephalomyelitis (EAE) model of MS; format: in vivo, C57BL/6 mice
Procedure: The effect of G79 was tested in the animal model of MS, the experimental autoimmune encephalomyelitis (EAE), by performing a preventive trial (in which the therapy starts at the time of the induction of the disease) and a curative trial (in which the therapy starts when the animals are already suffering from the disease). Female C57BL/6 mice from Harlan (8-12 weeks old) were immunized subcutaneously in both hind pads with 300 μg of myelin oligodendrocyte glycoprotein (MOG) peptide 35-55 (Spikem, Firenze) emulsified with 50 μg of Mycobacterium tuberculosis (H37Ra strain; Difco, Detroit, Mich.) in incomplete Freund's adjuvant (IFA) as previously described in Palacios et al., 2007. The mice were injected intraperitoneally with Pertussis toxin (Sigma) (500 ng) at the time of immunization and 2 days later. The animals were weighted and inspected for clinical signs of disease on a daily basis by a blinded observer. The severity of the disease EAE was assessed for 30 days according to the following scale: 0=normal; 0.5=mild limp tail; 1=limp tail; 2=mild paraparesis of the hind limbs, unsteady gait; 3=moderate paraparesis, voluntary movements still possible; 4=paraplegia or tetraparesis; 5=moribund state. At the end of the study, the mice were anesthetized and perfused intracardially with 4% of paraformaldehyde in 0.1 M phosphate buffer (pH 7.6). The brains, spinal cords and spleens were dissected and either fixed or frozen until use. Also serum was obtained from all the animals included in the study. This procedure was approved by the University of Barcelona Committee on Animal Care.
Two different experiments were performed to assess both the preventive effect and curative effect of G79, compared to other drugs targeting neurotrophin pathway (Gambogic amide and Xaliproden) or one of the first line therapy for the treatment of MS, i.e., Glatiramer acetate.
For the preventive trial, 10 animals were treated with intraperitoneal injection of G79 at the concentration of 40 mg/kg, 10 animals were treated with intraperitoneal injection of G79 at the concentration of 100 mg/kg, 10 animals were treated with intraperitoneal injection of Gambogic amide at the concentration of 2 mg/kg, 10 animals were treated with oral administration of Xaliproden at the concentration of 10 mg/kg. As both Gambogic amide and Xaliproden were diluted with different percentage of DMSO, 5 animals were treated with intraperitoneal injection of placebo (physiologic solution plus 1% DMSO) and other 5 animals were treated with placebo oral (physiologic solution plus 2.5% DMSO), respectively. The treatments were performed daily, starting after the immunization day.
For the curative trial, to reduce the discrepancy between the oral administration and intraperitoneal injections, as stress can deeply affect the development of the clinical scores in animals, all the treatments were performed by intraperitoneal injections. For this study, 8 animals were treated with G79 at the concentration of 40 mg/kg, 8 animals were treated with G79 at the concentration of 100 mg/kg, 8 animals were treated with Gambogic amide at the concentration of 2 mg/kg, 8 animals were treated with Xaliproden at the concentration of 10 mg/kg, 8 animals were treated with Glatiramer acetate at the concentration of 5 mg/kg, 8 animals were treated with placebo (physiologic solution plus 2.5% DMSO). The treatments were performed daily starting after the increase of the clinical score at score 2 (after the second day at this score).

[2] = preventive trial, 100 mg/Kg i.p.

CC(C)CN(CC(=O)N(CCCN1CCCC1=O)CC(N)=O)C(=O)CNCCc1ccccc1F [Compound G79, [N-(2-(2′-Fluorophenyl)ethyl)glycyl]-[N-(2-methylpropyl)glycyl]-N-[3-(2′-oxopyrrolidinyl)propyl]glycinamide] was tested, and the “protection of retinal ganglion cells (number of RGC vs glaucoma-placebo)” value ([1]; first experiment, eye drops, NGF 200, G79 200 and 400 μg/ml) was “significant protection of the ganglion cells”, the “protection of RGCs by the combination treatment” value ([1]; second experiment, G79 200 μg/ml in combination with Timolol) was “did not exert additive effect in protecting RGCs” and the “TrkA phosphorilation (phospho-TrkA, Tyr490)” value (TrkA) was “phosphorilated already after 5 min”. The “TrkB phosphorilation (phospho-TrkB, Tyr515)” value (TrkB) was “phosphorilated already after 5 min”, the “therapeutic effect in ameliorating the clinical score (in words)” value (mice affected by EAE; curative trial, 100 mg/Kg i.p.) was “best therapeutic effect in ameliorating the clinical score” and the clinical score (mice affected by EAE; curative trial, 100 mg/Kg i.p., 16th day) was 2.8±1.2. The clinical score (mice affected by EAE; curative trial, 100 mg/Kg i.p., day 19th) was 1.75±1, the clinical score (mice affected by EAE; curative trial, 100 mg/Kg i.p., day not printed (between day 16th and 23rd)) was 1.6±0.8 and the “delaying the disease, comparison of the doses” value (mice affected by EAE; [2]) was “more effective in delaying the disease”. The “final clinical score at day 30th” value (mice affected by EAE; [2]) was “lower compared to placebo treated animals” and the “onset of the disease (clinical score)” value (mice affected by EAE; preventive trial, G79 40 and 100 mg/kg i.p. daily) was “delay in the presence of the disease, although not significant”.
